Laboratory results published in US20120022032A1, “CORTICOSTEROID COMPOSITIONS AND METHODS OF TREATMENTS THEREOF” (priority 2008, published 2012).
Converted amounts (≈) assume the structure as drawn. Where two headings read alike, the source gives them in different places.

Key:
Assay type in all cases: physicochemical
[1] = Effect of additives on MF solubility in 0.2 M Captisol solution; conditions: aqueous with cosolvent or surfactant or cyclodextrin
Protocol: A stock solution of 0.2 M Captisol (SBE beta cyclodextrin) was prepared. Table 5 and FIG. 4 list the effect of various additives on the MF solubility of this solution: […]

[2] = Microemulsion equilibrium solubility determination of mometasone furoate; conditions: for concentration of mometasone furoate achieved: 5% MIGLYOL; for solubility at 72 h: SOLUTOL HS-15-based microemulsion, aqueous with cosolvent or surfactant or cyclodextrin, thermodynamic from solid
Protocol: The equilibrium solubility of mometasone furoate is determined in SOLUTOL® HS-15-based microemulsion composition composed of 20% of SOLUTOL® HS-15 with varying amounts of different oils (FIG. 2, Table 2). An excess amount of the drug is added in the solutions after water had been added. The vials is shaken over a 72 hour period. The solutions is centrifuged and filtered at various time intervals prior to analysis of the samples by HPLC. The drug solubility ranged from 300 mcg/ml to 600 mcg/g. Alternative oils are also explored (Table 3).
The concentration was ˜519 mcg/ml in a similar composition where PBS was replaced with water. To achieve a concentration of exactly 500 mcg/ml, roughly 5 mg of the drug was weighed and added to a mixture of 2 g of SOLUTOL® HS-15 and 0.5 g of MIGLYOL® 812, that was previously mixed using a magnetic stir bar. After the drug was dissolved in the pre-concentrate, 7.5 g of distilled water was added to the above mix to formulate a microemulsion of mometasone furoate.

[3] = MF solubility in cyclodextrin solutions; conditions: 3 mM citrate buffer pH 4.5
[4] = MF solubility in cyclodextrin solutions; conditions: 3 mM citrate buffer pH 4.5; remark: listed apart in the source
Protocol: Compositions of mometasone furoate 6 mg/ml were prepared in duplicate with a 0.05, […], and 0.2 M of four different cyclodextrins: an unsubstituted gamma cyclodextrin, a sulfobutyl ether (SBE) beta cyclodextrin (Captisol), and two substituted SBE gamma cyclodextrins. Only 0.05 and 0.1M cyclodextrins were evaluated for the unsubstituted gamma cyclodextrin. All compositions were prepared in a 3 mM citrate buffer at a pH of 4.5. The compositions were placed on a roller mixer (Stuart Scientific SRT233 rpm rise/fall 16 mm) protected from light and mixed for about three days. After the three day equilibration, the compositions were filtered using a 0.22 micrometer PVDF syringe filter and analyzed by HPLC.

[5] = Microemulsion equilibrium solubility determination of mometasone furoate; conditions: POLOXAMER 407-based microemulsion, aqueous with cosolvent or surfactant or cyclodextrin, thermodynamic from solid, microemulsion: ethyl laurate 5% w/w, POLOXAMER 407 10% w/w; read-out: MF Solubility
[6] = Micellar solubility determination of MF in 10% surfactant solutions in water; conditions: for solubility: 10% w/w excipient solution in water, aqueous with cosolvent or surfactant or cyclodextrin, thermodynamic from solid
Protocol: To determine the solubility of MF in various solutions, various MF solutions are prepared by measuring each excipient into a beaker at a 10% w/w concentration. If needed, the excipients are melted using a water bath maintained at 65° C. for approximately 30 minutes. The composition is q.s. to 50 g with water and mixed with an overhead/lightening mixer. Approximately 50-60 mg of anhydrous mometasone furoate anhydrous is added into each mixture. The solutions are mixed at a low speed on a shaker (Eberbacher) for about 48 to about 72 hours. Approximately 20 mL of each suspension are removed and centrifuged at 1200 rpm for 12 minutes. Approximately 5 mL of the supernatant is filtered using a 0.22 μm syringe filter. A 1 mL sample is taken from each filtered sample, diluted, and assayed using an HPLC.

[7] = anhydrous MF, 10% w/w CREMOPHOR RH 40 (polyoxyl 40 hydrogenated castor oil) in water
[8] = anhydrous MF, 10% w/w SOLUTOL HS 15 (polyethylene glycol 660-12 hydroxystearate) in water
[9] = anhydrous MF, 10% w/w TWEEN 80 (polysorbate 80) in water

For C[C@@H]1C[C@H]2[C@@H]3CCC4=CC(=O)C=C[C@]4(C)[C@@]3(Cl)[C@@H](O)C[C@]2(C)[C@@]1(OC(=O)c1ccco1)C(=O)CCl [MF, mometasone furoate], which solubility ([1]; 0.2 M Captisol + 0.01% w/v Polysorbate 80) is on record?
Its solubility is 235 µg/mL.

What about the solubility ([1]; 0.2 M Captisol + 0.02% w/v Benzalkonium Chloride) of the same molecule?
The solubility was 243 µg/mL.

And the solubility ([1]; 0.2 M Captisol + 0.1% w/v HPMC)?
Its solubility is 258 µg/mL.

What about the solubility ([1]; 0.2 M Captisol + 0.1% w/v Na-CMC) of the same molecule?
Its solubility is 242 µg/mL.

What about the solubility ([1]; 0.2 M Captisol + 0.1% w/v PVP-30) of the same molecule?
The solubility was 290 µg/mL.

What about the solubility ([1]; 0.2 M Captisol + 1% v/v EtOH) of the same molecule?
Its solubility is 236 µg/mL.

And the solubility ([1]; 0.2 M Captisol + 2.1% w/v Glycerin)?
Its solubility is 220 µg/mL.

What about the solubility ([1]; 0.2 M Captisol + 10% v/v EtOH) of the same molecule?
The solubility was 121 µg/mL.

And the solubility ([1]; 0.2 M Captisol + 10% w/v Propylene Glycol)?
The solubility was 107 µg/mL.

What about the “concentration of mometasone furoate achieved” value ([2]; 20% w/w SOLUTOL HS-15, 75% phosphate buffer system (PBS)) of the same molecule?
The value was 538 µg/mL.

What about the “concentration of mometasone furoate achieved” value ([2]; 20% w/w SOLUTOL HS-15, PBS replaced with water) of the same molecule?
Its value is about 519 µg/mL.

What about the solubility at 72 h ([2]; 20% SOLUTOL HS-15 microemulsions with varying amounts of different oils, 72 hour shaking, read-out: drug solubility (equilibrium)) of the same molecule?
Its solubility at 72 h is 300 to 600 µg/mL (≈ 575 to 1150 µM).

And the solubility at 72 h ([2]; microemulsion Example 1: MIGLYOL 812 4% w/w, SOLUTOL HS 15 20% w/w, read-out: Solubilized MF)?
The solubility at 72 h was 502 µg/mL (≈ 963 µM).

And the solubility at 72 h ([2]; microemulsion Example 2: MIGLYOL 812 5% w/w, SOLUTOL HS 15 20% w/w, read-out: Solubilized MF)?
The solubility at 72 h was 538 µg/mL (≈ 1030 µM).

What about the solubility at 72 h ([2]; microemulsion Example 4: MIGLYOL 840 4% w/w, SOLUTOL HS 15 20% w/w, read-out: Solubilized MF) of the same molecule?
Its solubility at 72 h is 540 µg/mL (≈ 1040 µM).

And the solubility at 72 h ([2]; microemulsion Example 5: CAPRYOL 3% w/w, SOLUTOL HS 15 20% w/w, read-out: Solubilized MF)?
Its solubility at 72 h is 422 µg/mL (≈ 809 µM).

What about the solubility at 72 h ([2]; microemulsion Example 6: corn oil 3% w/w, SOLUTOL HS 15 20% w/w, read-out: Solubilized MF) of the same molecule?
The solubility at 72 h was 408 µg/mL (≈ 782 µM).

And the solubility at 72 h ([2]; microemulsion Example 7: oleic acid 2% w/w, SOLUTOL HS 15 20% w/w, read-out: Solubilized MF)?
Its solubility at 72 h is 323 µg/mL (≈ 619 µM).

What about the solubility at 72 h ([2]; microemulsion Example 8: soybean oil 1% w/w, SOLUTOL HS 15 20% w/w, read-out: Solubilized MF) of the same molecule?
The solubility at 72 h was 375 µg/mL (≈ 719 µM).

What about the solubility at 72 h ([2]; microemulsion Example 9: soybean oil 2% w/w, SOLUTOL HS 15 20% w/w, read-out: Solubilized MF) of the same molecule?
Its solubility at 72 h is 397 µg/mL (≈ 761 µM).

And the solubility at 72 h ([2]; microemulsion: ethyl laurate 5% w/w, polyethylene glycol 660-12 hydroxystearate 20% w/w, read-out: MF Solubility)?
Its solubility at 72 h is 540 µg/mL (≈ 1040 µM).

What about the drug concentration determined by HPLC ([2]; about 5 mg drug dissolved in 2 g SOLUTOL HS-15 + 0.5 g MIGLYOL 812, then 7.5 g distilled water, target 500 mcg/ml) of the same molecule?
The drug concentration determined by HPLC was 500 µg/mL.

What about the Concentration of MF in solutions with cyclodextrins ([3]; Captisol (SBE beta-CD) 0.1M) of the same molecule?
The Concentration of MF in solutions with cyclodextrins was 152 µg/mL.

What about the Concentration of MF in solutions with cyclodextrins ([3]; SBE(6.1) gamma-CD 0.1M) of the same molecule?
Its Concentration of MF in solutions with cyclodextrins is 626 µg/mL.

And the Concentration of MF in solutions with cyclodextrins ([3]; SBE(6.2) gamma-CD 0.1M)?
The Concentration of MF in solutions with cyclodextrins was 569 µg/mL.

And the Concentration of MF in solutions with cyclodextrins ([4]; Captisol (SBE beta-CD) 0.05M, three day equilibration)?
Its Concentration of MF in solutions with cyclodextrins is 84 µg/mL.

What about the Concentration of MF in solutions with cyclodextrins ([4]; Captisol (SBE beta-CD) 0.2M) of the same molecule?
Its Concentration of MF in solutions with cyclodextrins is 261 µg/mL.

What about the Concentration of MF in solutions with cyclodextrins ([4]; SBE(6.1) gamma-CD 0.05M) of the same molecule?
The Concentration of MF in solutions with cyclodextrins was 262 µg/mL.

What about the Concentration of MF in solutions with cyclodextrins ([4]; SBE(6.1) gamma-CD 0.2M) of the same molecule?
Its Concentration of MF in solutions with cyclodextrins is 1840 µg/mL.

What about the Concentration of MF in solutions with cyclodextrins ([4]; SBE(6.2) gamma-CD 0.05M) of the same molecule?
The Concentration of MF in solutions with cyclodextrins was 250 µg/mL.

And the Concentration of MF in solutions with cyclodextrins ([4]; SBE(6.2) gamma-CD 0.2M)?
The Concentration of MF in solutions with cyclodextrins was 1940 µg/mL.

What about the Concentration of MF in solutions with cyclodextrins ([4]; unsubstituted gamma-CD 0.05M) of the same molecule?
The Concentration of MF in solutions with cyclodextrins was 117 µg/mL.

And the Concentration of MF in solutions with cyclodextrins ([4]; unsubstituted gamma-CD 0.1M)?
The Concentration of MF in solutions with cyclodextrins was 249 µg/mL.

What about the solubility at 72 h [5] of the same molecule?
Its solubility at 72 h is 90 µg/mL (≈ 173 µM).

What about the solubility ([6]; 10% Vitamin E TPGS in water) of the same molecule?
The solubility was about 500 µg/mL (≈ 959 µM).

What about the solubility [6, 7] of the same molecule?
Its solubility is 180 to 200 µg/mL (≈ 345 to 384 µM).

What about the solubility ([6]; anhydrous MF, 10% w/w LUTROL F127 (poloxamer 407) in water) of the same molecule?
Its solubility is 27 µg/mL (≈ 51.8 µM).

And the solubility [6, 8]?
The solubility was 180 to 200 µg/mL (≈ 345 to 384 µM).

What about the solubility [6, 9] of the same molecule?
The solubility was 180 to 200 µg/mL (≈ 345 to 384 µM).

What about the solubility ([6]; anhydrous MF, 10% w/w Vitamin E TPGS (d-α tocopheryl PEG 1000 succinate) in water) of the same molecule?
Its solubility is 499 µg/mL (≈ 957 µM).

And the solubility ([6]; solutions with 10% polyoxamers)?
The solubility was under 30 µg/mL.

What about the solubility ([6]; solutions with 10% polyvinylpyrrolidones) of the same molecule?
Its solubility is under 30 µg/mL.

What about the “MF Solubility” value [6, 7] of the same molecule?
The value was 189 µg/mL.

And the “MF Solubility” value [6, 8]?
Its value is 184 µg/mL.

And the “MF Solubility” value [6, 9]?
The value was 199 µg/mL.
